From patent US20050096327A1, “Novel norepinephrine reuptake inhibitors for the treatment of central nervous system disorders” (priority 2003, published 2005)
pKi: −log10 of the molar value. Where a name gives a salt, the structure may show the parent alone.

Experiments:
[1] = target: T1, human norepinephrine transporter (Homo sapiens, UniProt P23975); assay: hNET receptor binding ([125I]-RTI-55, membranes of transfected HEK-293 cells); details: 50 pM [125I]-RTI-55, 90 min room temperature; IC50 converted by Cheng-Prusoff
T1 construct: host or cells: HEK-293
Summary of the method: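 Competition binding on membranes from HEK-293 cells transfected with human NET, using 50 pM [125I]-RTI-55 in Krebs-HEPES pH 7.4, drug 10^−5 to 10^−12 M in duplicate, 90 min at room temperature, filtration. Nonspecific binding defined with 10 μM desipramine; IC50 converted to Ki by Cheng-Prusoff.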

[2] = target: T2, human serotonin transporter (Homo sapiens, UniProt P31645); assay: hSERT receptor binding ([125I]-RTI-55, membranes of transfected HEK-293 cells); details: 50 pM [125I]-RTI-55, 90 min room temperature; IC50 converted by Cheng-Prusoff
T2 construct: host or cells: HEK-293
Procedure: Cell pastes of HEK-293 cells transfected with the human serotonin transporter were supplied by the Pfizer Ann Arbor Protein Expression and Production Group. Pellets were resuspended in 400 to 700 mL of Krebs-HEPES assay buffer (25 mM HEPES, 122 mM NaCl, 3 mM KCl, 1.2 mM MgSO4, 1.3 mM CaCl2, and 11 mM glucose, pH 7.4) with a Polytron homogenizer at Setting 7 for 30 seconds. Aliquots of membranes (˜2.5 mg/mL protein) were stored in liquid nitrogen until used.
Assays were set up in FlashPlates pre-coated with 0.1% PEI in a total volume of 250 μL containing: drug (10^−5M to 10^−12M), cell membranes, and 50 pM [^125I]-RTI-55 (Perkin Elmer, NEX-272; specific activity 2200 Ci/mmol). The reaction was incubated and gently agitated for 90 minutes at room temperature, and terminated by removal of assay volume. Plates were covered, and bound [^125I]-RTI-55 was determined using a Wallac Trilux Beta Plate Counter. Test compounds were run in duplicate, and specific binding was defined as the difference between binding in the presence and absence of 10 μM citalopram.
Excel and GraphPad Prism software were used for data calculation and analysis. IC50 values were converted to Ki values using the Cheng-Prusoff equation. The Ki values for the hSERT are reported below in Table 1.

T2 sequence (P31645 whole entry): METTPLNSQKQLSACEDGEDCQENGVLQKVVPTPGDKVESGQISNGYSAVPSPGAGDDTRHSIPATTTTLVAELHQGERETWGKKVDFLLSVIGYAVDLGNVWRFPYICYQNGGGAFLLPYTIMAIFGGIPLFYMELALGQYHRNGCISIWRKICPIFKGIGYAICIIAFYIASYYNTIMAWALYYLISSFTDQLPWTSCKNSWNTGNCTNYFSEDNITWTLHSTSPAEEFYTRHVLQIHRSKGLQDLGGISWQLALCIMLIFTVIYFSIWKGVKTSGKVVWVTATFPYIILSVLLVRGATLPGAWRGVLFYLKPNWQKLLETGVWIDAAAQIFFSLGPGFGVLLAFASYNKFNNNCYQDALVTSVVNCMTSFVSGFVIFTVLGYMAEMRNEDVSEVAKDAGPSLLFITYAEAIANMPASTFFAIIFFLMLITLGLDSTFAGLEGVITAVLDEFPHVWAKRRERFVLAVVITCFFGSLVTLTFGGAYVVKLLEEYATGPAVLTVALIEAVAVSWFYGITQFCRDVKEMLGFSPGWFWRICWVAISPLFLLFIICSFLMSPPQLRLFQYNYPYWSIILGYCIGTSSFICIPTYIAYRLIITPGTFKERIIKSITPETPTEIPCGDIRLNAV
T1 sequence (P23975 whole entry): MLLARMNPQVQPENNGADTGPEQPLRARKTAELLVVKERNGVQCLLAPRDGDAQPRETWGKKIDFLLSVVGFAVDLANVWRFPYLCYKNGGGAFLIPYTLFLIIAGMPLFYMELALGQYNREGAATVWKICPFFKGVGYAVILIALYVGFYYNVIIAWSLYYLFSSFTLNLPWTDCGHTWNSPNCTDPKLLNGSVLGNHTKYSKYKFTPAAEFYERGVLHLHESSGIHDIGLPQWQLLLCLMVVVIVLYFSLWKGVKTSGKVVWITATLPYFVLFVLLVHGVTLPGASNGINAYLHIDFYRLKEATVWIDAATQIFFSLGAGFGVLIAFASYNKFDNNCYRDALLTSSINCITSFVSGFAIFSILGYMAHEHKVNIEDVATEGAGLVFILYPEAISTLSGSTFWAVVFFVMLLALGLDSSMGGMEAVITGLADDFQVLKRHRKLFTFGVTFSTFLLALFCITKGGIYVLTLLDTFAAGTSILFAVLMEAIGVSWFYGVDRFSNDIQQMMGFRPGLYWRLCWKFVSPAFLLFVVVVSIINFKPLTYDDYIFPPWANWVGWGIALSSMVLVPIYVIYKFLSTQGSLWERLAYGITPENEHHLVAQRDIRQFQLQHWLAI

| Molecule | melting point | pKi [1] | pKi [2] |
| --- | --- | --- | --- |
| Fc1cccc(F)c1-c1nc(N2CCNCC2)nc2ccccc12 (as salt: hydrochloride) [Example 29, 4-(2,6-Difluoro-phenyl)-2-piperazin-4-yl-quinazoline hydrochloride] | 295 to 297 °C |  |  |
| CN[C@H]1CCN(c2nc(-c3ccccc3F)c3ccccc3n2)C1 (as salt: hydrochloride) [Example 35, (S)-(+)-1-[4-(2-Fluoro-phenyl)-quinazolin-2-yl]-pyrrolidin-3-yl}-methyl-amine hydrochloride] | 257 to 258 °C |  |  |
| C[C@@H]1CN(c2nc(-c3ccccc3)c3ccccc3n2)CCN1 (as salt: salt) [Example 31, (R)-(+)-2-(3-Methyl-piperazin-1-yl)-4-phenyl-quinazoline] | 241 to 242 °C |  |  |
| Fc1ccc(-c2nc(N3CCNCC3)nc3ccccc23)c(Cl)c1 (as salt: salt) [Example 61, 4-(2-Chloro-4-fluoro-phenyl)-2-piperazin-1-yl-quinazoline] | 248 to 251 °C |  |  |
| c1ccc(-c2nc(N3CC4CNCC4C3)nc3ccccc23)cc1 (stereo not drawn) (as salt: salt) [Example 81, 2-(Hexahydro-pyrrolo[3,4-c]pyrrol-2-yl)-4-phenyl-quinazoline] | 267 to 270 °C |  |  |
| Cl.c1ccc(-c2nc(C3CCCNC3)nc3ccccc23)cc1 (stereo not drawn) (hydrate or solvate) | 231 to 232 °C |  |  |
| CN1CCN(c2nc(-c3ccccc3)c3ccccc3n2)CC1 [Example 1, 2-(4-Methyl-piperazin-1-yl)-4-phenyl-quinazoline] | 101 to 122 °C | 7.53 |  |
| Cc1ccc(-c2nc(N3CCN(C)CC3)nc3ccccc23)cc1 [Example 2, 2-(4-Methyl-piperazin-1-yl)-4-p-tolyl-quinazoline] | 85 to 87 °C | 7.11 |  |
| Cc1ccccc1-c1nc(N2CCN(C)CC2)nc2ccccc12 [Example 4, 2-(4-Methyl-piperazin-1-yl)-4-o-tolyl-quinazoline] | 91 to 94 °C | 7.47 |  |
| CN1CC2CCCC(C1)N2c1nc(-c2ccccc2)c2ccccc2n1 [Example 5, 2-(3-Methyl-3,9-diaza-bicyclo[3.3.1]non-9-yl)-4-phenyl-quinazoline] | 118 to 121 °C | 7.38 |  |
| CC(C)c1nc(N2CCNCC2)nc2ccccc12.Cl [Example 6, 4-Isopropyl-2-piperazin-1-yl-quinazoline hydrochloride] | 253 to 254 °C | 7.78 |  |
| Cl.c1ccc(-c2nc(N3CCCNCC3)nc3ccccc23)cc1 [Example 7, 2-[1,4]Diazepan-1-yl-4-phenyl-quinazoline hydrochloride] | 230 to 231 °C | 8.70 |  |
| CC(C)c1nc(N2CCCNCC2)nc2ccccc12.Cl [Example 8, 2-[1,4]Diazepan-1-yl-4-isopropyl-quinazoline hydrochloride] | 193 to 194 °C | 8.32 |  |
| CC1CN(c2nc(-c3ccccc3)c3ccccc3n2)C(C)CN1.Cl (stereo not drawn) [Example 9, 2-(2,5-Dimethyl-piperazin-1-yl)-4-phenyl-quinazoline hydrochloride] | 221 to 222 °C | 7.66 |  |
| Cl.NCCC1CCCN(c2nc(-c3ccccc3)c3ccccc3n2)C1 (stereo not drawn) [Example 11, 2-[1-(4-Phenyl-quinazolin-2-yl)-piperidin-3-yl]-ethylamine hydrochloride] | 86 to 88 °C | 7.09 |  |
| Cl.NC1CCN(c2nc(-c3ccccc3)c3ccccc3n2)CC1 [Example 12, 1-(4-Phenyl-quinazolin-2-yl)-piperidin-4-ylamine hydrochloride] | > 300 °C | 7.02 |  |
| Cl.N[C@H]1CCN(c2nc(-c3ccccc3)c3ccccc3n2)C1 [Example 14, (S)-(+)-1-(4-Phenyl-quinazolin-2-yl)-pyrrolidin-3-ylamine hydrochloride] | 274 to 275 °C | 8.43 |  |

| Molecule | melting point | pKi [1] | pKi [2] |
| --- | --- | --- | --- |
| C[C@H]1CNCCN1c1nc(-c2ccccc2)c2ccccc2n1.Cl [Example 15, (S)-(+)-2-(2-Methyl-piperazin-1-yl)-4-phenyl-quinazoline hydrochloride] | 154 to 157 °C | 8.34 |  |
| Cl.N[C@@H]1CCN(c2nc(-c3ccccc3)c3ccccc3n2)C1 [Example 16, (R)-(−)1-(4-Phenyl-quinazolin-2-yl)-pyrrolidin-3-yl-amine hydrochloride] | 261 to 265 °C | 7.51 |  |
| CN1CCN(c2nc(-c3ccccc3F)c3ccccc3n2)CC1 [Example 18, 4-(2-Fluoro-phenyl)-2-(4-methyl-piperazin-1-yl)-quinazoline] | 123 to 124 °C | 7.92 |  |
| CNC1CCN(c2nc(-c3cccc(F)c3F)c3ccccc3n2)CC1 [Example 158] |  | 6.68 | 5.22 |
| NCCCNc1nc(-c2cccc(F)c2F)c2ccccc2n1 [Example 159, N1-[4-(2,3-Difluoro-phenyl)-quinazolin-2-yl]-propane-1,3-diamine] |  | 6.91 | < 5.00 |
| Fc1ccc2c(-c3ccccc3C(F)(F)F)nc(N3CCNCC3)nc2c1 [Example 160, 7-Fluoro-2-piperazin-1-yl-4-(2-trifluoromethyl-phenyl)-quinazoline] |  | 7.22 | 6.01 |
| Fc1ccc(-c2nc(N3CCNCC3)c3ccccc3n2)c(F)c1 [Example 161, 2-(2,4-Difluoro-phenyl)-4-piperazin-1-yl-quinazoline] |  | 5.46 | 6.42 |
| Fc1ccc2c(-c3c(F)cccc3F)nc(C3CCNCC3)nc2c1 [Example 162, 4-(2,6-Difluoro-phenyl)-7-fluoro-2-piperidin-4-yl-quinazoline] |  | 7.94 | 7.28 |
| Fc1ccc2c(-c3ccccc3)nc(N3CCNCC3)nc2c1F [Example 163, 7,8-Difluoro-4-phenyl-2-piperazin-1-yl-quinazoline] |  | 7.90 | 6.36 |
| CC[C@H]1CNCCN1c1nc(-c2c(F)cccc2F)c2ccccc2n1 [Example 164, S-4-(2,6-Difluoro-phenyl)-2-(2-ethyl-piperazin-1-yl)-quinazoline] |  | 7.50 | 7.74 |
| CC[C@H]1CNCCN1c1nc(-c2ccc(F)cc2F)c2ccccc2n1 [Example 165, S-4-(2,4-Difluoro-phenyl)-2-(2-ethyl-piperazin-1-yl)-quinazoline] |  | 7.51 | 7.84 |
| CC(C)[C@H]1CNCCN1c1nc(-c2cccc(F)c2F)c2ccccc2n1 [Example 166, S-4-(2,3-Difluoro-phenyl)-2-(2-isopropyl-piperazin-1-yl)-quinazoline] |  | 7.10 | 6.73 |
| CC(C)[C@H]1CNCCN1c1nc(-c2ccc(F)cc2F)c2ccccc2n1 [Example 167, S-4-(2,4-Difluoro-phenyl)-2-(2-isopropyl-piperazin-1-yl)-quinazoline] |  | 7.18 | 7.16 |
| R-4-(2,4-Difluoro-phenyl)-7-fluoro-2-(2-methyl-piperazin-1-yl)-quinazoline [Example 138] |  | 7.45 | 7.61 |
| S-4-(2,4-Difluoro-phenyl)-7-fluoro-2-(2-methyl-piperazin-1-yl)-quinazoline [Example 139] |  | 7.51 | 7.60 |
| S-[4-(2,4-Difluoro-phenyl)-7-fluoro-quinazolin-2-yl]-pyrrolidin-3-yl-amine [Example 144] |  | 7.63 | 7.58 |
